# Laboratory results: patent US6794414B1, “Method and compositions for treating diseases mediated by transglutaminase activity” (Yeda Research and Development Co. Ltd., priority 1998, dated 2004)
# Entries after “also recorded” stand apart in the source; their conditions may differ.
# T1: httQ23 (310 amino acids), P42858
# T1 chain: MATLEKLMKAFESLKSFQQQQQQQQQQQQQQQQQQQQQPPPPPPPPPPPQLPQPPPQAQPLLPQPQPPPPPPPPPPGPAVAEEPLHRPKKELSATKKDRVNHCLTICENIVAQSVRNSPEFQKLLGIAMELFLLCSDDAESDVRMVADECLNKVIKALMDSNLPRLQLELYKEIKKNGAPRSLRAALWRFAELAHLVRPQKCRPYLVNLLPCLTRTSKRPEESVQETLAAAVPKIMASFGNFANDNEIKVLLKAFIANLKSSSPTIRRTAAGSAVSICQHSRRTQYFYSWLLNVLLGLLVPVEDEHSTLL
# T2: httQ23 (90 amino acids), P42858
# T2 chain: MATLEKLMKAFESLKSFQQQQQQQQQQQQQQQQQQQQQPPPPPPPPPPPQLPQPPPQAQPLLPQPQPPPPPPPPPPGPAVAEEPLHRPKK
# T3: httQ41 (100 amino acids; elsewhere given as 110 amino acids), P42858
# T3 chain: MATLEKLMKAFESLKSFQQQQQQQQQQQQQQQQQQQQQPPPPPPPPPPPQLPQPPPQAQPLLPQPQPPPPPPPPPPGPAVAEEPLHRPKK
# T4: httQ41 (330 amino acids), P42858
# T4 chain: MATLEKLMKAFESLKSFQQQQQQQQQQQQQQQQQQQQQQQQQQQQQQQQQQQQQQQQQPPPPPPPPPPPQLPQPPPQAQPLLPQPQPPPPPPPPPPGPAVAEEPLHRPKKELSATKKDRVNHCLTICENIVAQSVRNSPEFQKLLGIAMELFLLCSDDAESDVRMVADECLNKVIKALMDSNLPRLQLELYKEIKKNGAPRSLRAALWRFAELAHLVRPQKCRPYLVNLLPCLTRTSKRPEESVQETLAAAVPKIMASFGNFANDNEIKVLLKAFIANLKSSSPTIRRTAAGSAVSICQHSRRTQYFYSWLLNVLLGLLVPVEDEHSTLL
# T5: httQ67 (135 amino acids), P42858
# T5 chain: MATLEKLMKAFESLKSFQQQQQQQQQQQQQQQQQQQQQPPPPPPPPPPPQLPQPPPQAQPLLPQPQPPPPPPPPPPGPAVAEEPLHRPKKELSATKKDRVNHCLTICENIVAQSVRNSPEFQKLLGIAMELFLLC
# What was measured:
# transglutaminase (TGase) = assay: TGase assay on human brain extracts ([3H]putrescine incorporation into casein); assay type: biochemical; conditions: for TGase Activity + Casein + MDC / TGase Activity − Casein + MDC: 5 mM mono dansyl cadaverine, mean ± SEM, n = 2; for TGase Activity − Casein + MDC: no casein
# Experimental: Each assay contained 80 μg of brain extract, 4 mg/ml N,N-dimethylated casein, 50 mM Tris (pH 8.0), 5 mM CaCl2, 5 mM dithiothreitol (DTT), and 0.37 mM putrescine (1:5, ^3 [H]putrescine:putrescine) in 80 μL. The reaction was incubated at 37° C. for 30 minutes. After it was washed in 500 μL of 10% trichloro acetic acid (TCA) and washed again in 100% ethanol, the reaction was resuspended in 220 μL of 0.1 M NaOH. The resuspended pellet was added to 10 ml of scintillation liquid. […] For lymphoid cells, 10^6 cells were suspended in 0.5 ml buffer for five minutes, then centrifuged at 1200×g for ten minutes.
# Approximately 500 mg of brain tissue was homogenized in 2 ml of 10 mM Hepes (pH 7.4) containing 150 mM NaCl, 0.2 mg/ml leupeptin, 0.2 mg/ml aprotinin, 0.2 mg/ml pepstatin, and 0.5 mM phenylmethylsulfonyl fluoride (PMSF). The homogenate was centrifuged at 4° C. for ten minutes at 1000×g, and the supernatant was then centrifuged at 4° C. for ten minutes at 10,000×g to separate the cytoplasmic proteins. The remaining nuclear pellet was washed twice, for ten minutes each time, with the homogenization buffer at 4° C. at 1000×g, and then suspended in 1 ml of 10 mM Tris-Cl, 140 mM NaCl, 3 mM MgCl2, 0.5 mM PMSF, 0.1% sodium dodecyl sulfate (SDS), and 1% Nonylphenyl-polyethylene glycol (Nonidet P-40) (pH 7.4). The homogenate was spun at 4° C. for ten minutes at 8000×g. This procedure increased the level of beta-demn, a protein found more frequently in the cytoplasm than in the nucleus, enriching it 15.5-fold in the cytoplasm relative to the nucleus (Zhao et al, 1998).
# This method for measuring brain transglutaminase was adapted from Folk and Cole (Folk et al, 1966). Casein serves as an excellent glutamine-containing protein substrate and […], while putrescine serves as the attacking nucleophile (Cooper et al, 1997). In the Huntington's Disease brain, in both the affected cortex andjin relatively unaffected areas like the cerebellum, which are affected in juvenile Huntington's Disease, transglutaminase activity was greater than in the corresponding areas of the control brain (HD cortex 14888±2864 cpm vs. normal cortex 6697±1410 cpm, mean ±1SEM, p<0.009 for HD cortex versus normal cortex; HD cerebellum 11221±2426 cpm vs. control cerebellum 2606±719 cpm, mean ±1SEM, p<0.001 for HD cerebellum versus control cerebellum.) Transglutaminase activity was also greater in extracts of nuclei from brains of Huntington's Disease patients than controls (HD brain cortical nuclear extract 6368±764 cpm vs. control brain cortical nuclear extract 2357±226 cpm, mean ±1SEM, Table 1).
# [1] = tested on: mice with experimental autoimmune encephalomyelitis; assay: Experimental autoimmune encephalomyelitis (EAE) in mice; assay type: in vivo; conditions: for Paralysis / paralytic disease in EAE: paraparetic mice with EAE
# Experimental: Paraparetic mice with experimental autoimmune encephalomyelitis were administered one dose of monodansyl cadaverine. […] Thus, diseases mediated in part by transglutaminase can be treated with transglutaminase inhibitors.
# 0.05 mM monodansyl cadaverine was injected intraperitoneally into one of two groups of mice. The injection was given on day 13 after induction of disease, marked in the FIG. by an arrow.
# To obtain the data shown in FIG. 6, experimental autoimmune encephalitis (EAE) was induced in ten week old SJL female mice. EAE was induced by an injection of 4 mg of mouse spinal cord homogenate in 1 ml of CFA. The injections were given intradermally in three places (two places in the flanks and one in the neck). On the same day, day 1, and on day 2, an intraperitoneal injection of pertussis toxin was given. The mice were treated with different concentrations of mono dansyl cadaverine on day 10. One group was injected twice on days 7 and 10 with […] mono dansyl cadaverine.
# The grading score for EAE is 0, normal; 1, mild paraparesis; 2, paraparesis; 3, severe paraparesis; 4, quadriparesis; 5, dead.
# [2] = target: T1, httQ23 (310 amino acids), P42858
# [3] = target: T2, httQ23 (90 amino acids), P42858
# [4] = target: T3, httQ41 (100 amino acids; elsewhere …)
# [5] = target: T4, httQ41 (330 amino acids), P42858
# [6] = target: T5, httQ67 (135 amino acids), P42858
molecule,measurement,setting,value
CN(C)c1cccc2c(S(=O)(=O)NCCCCCN)cccc12 [monodansyl cadaverine],TGase Activity + Casein + MDC,transglutaminase (TGase); Control Cerebellum extract,83 ± 14 CPM
same,TGase Activity − Casein + MDC,transglutaminase (TGase); Control Cerebellum extract,117 ± 30 CPM
same,TGase Activity + Casein + MDC,transglutaminase (TGase); Control Cortex extract,63 ± 10 CPM
same,TGase Activity − Casein + MDC,transglutaminase (TGase); Control Cortex extract,151 ± 39 CPM
same,TGase Activity + Casein + MDC,transglutaminase (TGase); HD Cerebellum extract,186 ± 57 CPM
same,TGase Activity − Casein + MDC,transglutaminase (TGase); HD Cerebellum extract,58 ± 13 CPM
same,TGase Activity + Casein + MDC,transglutaminase (TGase); HD Cortex extract,94 ± 18 CPM
same,TGase Activity − Casein + MDC,transglutaminase (TGase); HD Cortex extract,81 ± 17 CPM
same,Inhibition of enzymatic (transglutaminase) activity of brain extract,"transglutaminase (TGase); cytosolic extract from HD and control brain, putrescine incorporation into casein",completely inhibited
same,"Effect on EAE (FIG. 5), p compared to control","[1]; 0.05 mM injected intraperitoneally on day 13 after induction, following the second day of injection",significant influence (p=0.03 compared to control)
same,Mononuclear cell infiltration in brains by hematoxilin-eosin staining,"[1]; FIG. 5 experiment, versus vehicle-injected controls",high levels of infiltration
same,Side effects,[1]; mice treated in vivo,no untoward side effects
same,Lymphocytic infiltration / accumulation of inflammatory lymphocytes in brain,"[1]; mice with EAE, histology",prevented the accumulation of inflammatory lymphocytes in the brain; also recorded: reversed
same,Paralysis / paralytic disease in EAE,[1],reversed paralytic disease; also recorded: Ongoing paralysis was reversed
same,Disease status after treatment,[1]; paraparetic mice with EAE treated in vivo,apparently free of disease; also recorded: free of disease after treatment
same,Paralysis / paralytic disease in EAE,[1]; listed as monodensyl cadaverine,can reverse ongoing paralysis
guinea pig liver TGase (Sigma) (protein) AEDLILERCDLQLEVNGRDHRTADLCRERLVLRRGQPFWLTLHFEGRGYEAGVDTLTFNAVTGPDPSEEAGTMARFSLSSAVEGGTWSASAVDQQDSTVSLLLSTPADAPIGLYRLSLEASTGYQGSSFVLGHFILLYNPRCPADAVYMDSDQERQEYVLTQQGFIYQGSAKFINGIPWNFGQFEDGILDICLMLLDTNPKFLKNAGQDCSRRSRPVYVGRVVSAMVNCNDDQGVLQGRWDNNYSDGVSPMSWIGSVDILRRWKDYGCQRVKYGQCWVFAAVACTVLRCLGIPTRVVTNFNSAHDQNSNLLIEYFRNESGEIEGNKSEMIWNFHCWVESWMTRPDLEPGYEGWQALDPTPQEKSEGTYCCGPVPVRAIKEGHLNVKYDAPFVFAEVNADVVNWIRQKDGSLRKSINHLVVGLKISTKSVGRDEREDITHTYKYPEGSEEEREAFVRANHLNKLATKEEAQEETGVAMRIRVGQNMTMGSDFDIFAYITNGTAESHECQLLLCARIVSYNGVLGPVCSTNDLLNLTLDPFSENSIPLHILYEKYGDYLTESNLIKVRGLLIEPAANSYVLAERDIYLENPEIKIRVLGEPKQNRKLIAEVSLKNPLPVPLLGCIFTVEGAGLTKDQKSVEVPDPVEAGEQAKVRVDLLPTEVGLHKLVVNFECDKLKAVKGYRNVIIGPA,aggregation into a high molecular weight polymer (35S gel),[2],"upon addition of transglutaminase, both httQ23 (310 amino acids) and httQ41 (330 amino acids) aggregate into a high molecular weight polymer within 30 minutes"
same,aggregation into a high molecular weight polymer (35S gel),[3],"upon addition of transglutaminase, httQ23 (90 amino acids), httQ41 (100 amino acids), and httQ67 (135 amino acids) all aggregate into a high molecular weight polymer within 30 minutes"
same,aggregation into a high molecular weight polymer (35S gel),[4],"upon addition of transglutaminase, httQ23 (90 amino acids), httQ41 (100 amino acids), and httQ67 (135 amino acids) all aggregate into a high molecular weight polymer within 30 minutes"
same,amount of aggregation compared to httQ23 (densitometry),[4],2-3 fold greater amount of aggregation of httQ41 and httQ67 compared to httQ23 at each concentration of transglutaminase
same,aggregation into a high molecular weight polymer (35S gel),[5],"upon addition of transglutaminase, both httQ23 (310 amino acids) and httQ41 (330 amino acids) aggregate into a high molecular weight polymer within 30 minutes"
same,aggregation into a high molecular weight polymer (35S gel),[6],"upon addition of transglutaminase, httQ23 (90 amino acids), httQ41 (100 amino acids), and httQ67 (135 amino acids) all aggregate into a high molecular weight polymer within 30 minutes"
same,amount of aggregation compared to httQ23 (densitometry),[6],2-3 fold greater amount of aggregation of httQ41 and httQ67 compared to httQ23 at each concentration of transglutaminase
